Results taken from PubChem BioAssay AID256 (DTP/NCI, 2004).
Several values for one entry are separate records, joined by “and”; a condition that tells them apart may be missing. Identical values can stand only once. Toxic doses and inconclusive results are not listed. How the source made its calls: active means survival T/C of 150% or more; inactive means T/C below 125% in these data.

System: CD2F1 mice, L1210 leukemia ip, survival T/C
Experiment: NCI In Vivo Anticancer Drug Screen. Data for tumor model L1210 Leukemia (intraperitoneal) in CD2F1 (CDF1) mice
Details: endpoint: mean survival time, higher = longer survival
Method: The antitumor activity of compounds was measured in mice bearing transplantable tumors. Survival or tumor size were measured and the results are expressed as the measurement made in the treated group (T) divided by the measurement made in the vehicle treated control group (C). The tumor model used in this assay is L1210 Leukemia (intraperitoneal) in CD2F1 (CDF1) mice

[1] = dose: 100.0 mg/kg/injection, schedule: Q01DX001 (ip), vehicle: saline
[2] = dose: 100.0 mg/kg/injection, schedule: Q04DX002 (ip), vehicle: saline with Tween-80
[3] = dose: 200.0 mg/kg/injection, schedule: Q04DX002 (ip), vehicle: saline with Tween-80
[4] = dose: 400.0 mg/kg/injection, schedule: Q04DX002 (ip), vehicle: saline with Tween-80
[5] = dose: 25.0 mg/kg/injection, schedule: Q01DX009 (ip), vehicle: Klucel (hydroxypropylcellulose) (HPC)
[6] = dose: 50.0 mg/kg/injection, schedule: Q01DX009 (ip), vehicle: Klucel (hydroxypropylcellulose) (HPC)
[7] = dose: 50.0 mg/kg/injection, schedule: Q01DX009 (ip), vehicle: saline
[8] = dose: 100.0 mg/kg/injection, schedule: Q01DX009 (ip), vehicle: Klucel (hydroxypropylcellulose) (HPC)
[9] = dose: 100.0 mg/kg/injection, schedule: Q01DX009 (ip), vehicle: saline with Tween-80
[10] = dose: 100.0 mg/kg/injection, schedule: Q01DX009 (ip), vehicle: saline
[11] = dose: 200.0 mg/kg/injection, schedule: Q01DX009 (ip), vehicle: Klucel (hydroxypropylcellulose) (HPC)
[12] = dose: 200.0 mg/kg/injection, schedule: Q01DX009 (ip), vehicle: saline with Tween-80
[13] = dose: 200.0 mg/kg/injection, schedule: Q01DX009 (ip), vehicle: saline
[14] = dose: 400.0 mg/kg/injection, schedule: Q01DX009 (ip), vehicle: saline with Tween-80
[15] = dose: 100.0 mg/kg/injection, schedule: Q04DX003 (ip), vehicle: saline with Tween-80
[16] = dose: 200.0 mg/kg/injection, schedule: Q04DX003 (ip), vehicle: saline with Tween-80
[17] = dose: 400.0 mg/kg/injection, schedule: Q04DX003 (ip), vehicle: saline with Tween-80

Measured: T/C

O=NN(CCCl)C(=O)NCCc1cccc[n+]1[O-]
inactive: dose: 1.56 mg/kg/injection, schedule: Q01DX001 (ip), vehicle: water 108 % of control | dose: 3.13 mg/kg/injection, schedule: Q01DX001 (ip), vehicle: water 116 % of control | dose: 6.25 mg/kg/injection, schedule: Q01DX001 (ip), vehicle: water 121 % of control
active: dose: 25.0 mg/kg/injection, schedule: Q01DX001 (ip), vehicle: water 173 % of control | dose: 50.0 mg/kg/injection, schedule: Q01DX001 (ip), vehicle: water 309 % of control | dose: 100.0 mg/kg/injection, schedule: Q01DX001 (ip), vehicle: water 240 % of control

Cc1cc(=O)[nH]c(=S)[nH]1.[Pd]
inactive: dose: 3.12 mg/kg/injection, schedule: Q04DX003 (ip), vehicle: saline 103 % of control | dose: 6.25 mg/kg/injection, schedule: Q04DX003 (ip), vehicle: saline 108 % of control | dose: 12.5 mg/kg/injection, schedule: Q04DX003 (ip), vehicle: saline 105 % of control | dose: 25.0 mg/kg/injection, schedule: Q04DX003 (ip), vehicle: saline 100 % of control | dose: 50.0 mg/kg/injection, schedule: Q04DX003 (ip), vehicle: saline 102 % of control | dose: 100.0 mg/kg/injection, schedule: Q04DX003 (ip), vehicle: saline 102 % of control | dose: 200.0 mg/kg/injection, schedule: Q04DX003 (ip), vehicle: saline 100 % of control

Cc1ncc(CO)c(/C=N/NC(N)=S)c1O
inactive: [1] 101 % of control | dose: 200.0 mg/kg/injection, schedule: Q01DX001 (ip), vehicle: saline 100 % of control | dose: 400.0 mg/kg/injection, schedule: Q01DX001 (ip), vehicle: saline 101 % of control

COc1ccc(COc2ccc(Cl)cc2)cc1
inactive: dose: 75.0 mg/kg/injection, schedule: Q04DX002 (ip), vehicle: saline with Tween-80 87 % of control | dose: 150.0 mg/kg/injection, schedule: Q04DX002 (ip), vehicle: saline with Tween-80 98 % of control | dose: 300.0 mg/kg/injection, schedule: Q04DX002 (ip), vehicle: saline with Tween-80 106 % of control

O=P(O)(O)CP(=O)(O)O.[NH-]CC[NH-].[NH-]CC[NH-].[Pt+2].[Pt+2]
inactive: dose: 3.13 mg/kg/injection, schedule: Q04DX003 (ip), vehicle: distilled water + Tween-80 119 % of control | dose: 6.25 mg/kg/injection, schedule: Q04DX003 (ip), vehicle: distilled water + Tween-80 92 % of control | dose: 12.5 mg/kg/injection, schedule: Q04DX003 (ip), vehicle: distilled water + Tween-80 103 % of control | dose: 25.0 mg/kg/injection, schedule: Q04DX003 (ip), vehicle: distilled water + Tween-80 109 % of control | dose: 50.0 mg/kg/injection, schedule: Q04DX003 (ip), vehicle: distilled water + Tween-80 103 % of control | dose: 100.0 mg/kg/injection, schedule: Q04DX003 (ip), vehicle: distilled water + Tween-80 109 % of control | dose: 200.0 mg/kg/injection, schedule: Q04DX003 (ip), vehicle: distilled water + Tween-80 90 % of control

CCNC1=C(C)C(=O)C2=C(C1=O)C(COC(N)=O)C1(O)C3C(CN21)N3C (stereo not drawn)
inactive: dose: 1.5 mg/kg/injection, schedule: Q01DX001 (ip), vehicle: saline 98 % of control | dose: 3.0 mg/kg/injection, schedule: Q01DX001 (ip), vehicle: saline 95 % of control | dose: 6.0 mg/kg/injection, schedule: Q01DX001 (ip), vehicle: saline 101 % of control | dose: 12.0 mg/kg/injection, schedule: Q01DX001 (ip), vehicle: saline 93 % of control | dose: 24.0 mg/kg/injection, schedule: Q01DX001 (ip), vehicle: saline 95 % of control | dose: 30.0 mg/kg/injection, schedule: Q01DX001 (ip), vehicle: water 100 % of control | dose: 60.0 mg/kg/injection, schedule: Q01DX001 (ip), vehicle: water 101 % of control

S=C(N/N=C/c1ccccn1)Nc1ccccn1
inactive: [2] 103 % of control | [3] 114 % of control | [4] 91 % of control

Nc1c(Cl)c(Cl)nc(C(=O)O)c1Cl
inactive: [5] 98 % of control | dose: 25.0 mg/kg/injection, schedule: Q01DX009 (ip), vehicle: saline with Tween-80 100 % of control | [6] 98 % of control | dose: 50.0 mg/kg/injection, schedule: Q01DX009 (ip), vehicle: saline with Tween-80 94 % of control | [7] 97 % of control | [8] 90 % of control | [9] 97 % of control | [10] 97 % of control | [11] 100 % of control | [12] 97 % of control | [13] 101 % of control | [14] 101 % of control

O=C1NC(=O)C(=Cc2cc3c(cc2Br)OCO3)C(=O)N1
inactive: [5] 91 % of control | [6] 93 % of control | [8] 89 % of control | [2] 104 % of control | [11] 100 % of control | [3] 112 % of control | [4] 108 % of control

C=CC[P+](c1ccccc1)(c1ccccc1)c1ccccc1
inactive: dose: 6.25 mg/kg/injection, schedule: Q01DX001 (ip), vehicle: saline 101 % of control | dose: 12.5 mg/kg/injection, schedule: Q01DX001 (ip), vehicle: saline 100 % of control and 112 % of control | dose: 25.0 mg/kg/injection, schedule: Q01DX001 (ip), vehicle: saline 96 % of control and 103 % of control

CC(C)(CO)C(O)C(=O)NC1CCCCC1 (stereo not drawn)
inactive: dose: 100.0 mg/kg/injection, schedule: Q01DX001 (ip), vehicle: saline with Tween-80 98 % of control | [9] 102 % of control | dose: 200.0 mg/kg/injection, schedule: Q01DX001 (ip), vehicle: saline with Tween-80 102 % of control | [12] 100 % of control | dose: 400.0 mg/kg/injection, schedule: Q01DX001 (ip), vehicle: saline with Tween-80 94 % of control | [14] 97 % of control

[I-].[Ni+2].[O-]/N=C/c1ccccn1.[O-]/N=C/c1ccccn1.[O-]/N=C/c1ccccn1
inactive: [1] 106 % of control

O=C1CCCN1
inactive: [7] 91 % of control | [10] 98 % of control | [13] 89 % of control

CCCCCCCCCCCCCC(CCCC)CCCCCCCC (stereo not drawn)
inactive: dose: 100.0 mg/kg/injection, schedule: Q01DX001 (ip), vehicle: saline sonified 107 % of control | dose: 200.0 mg/kg/injection, schedule: Q01DX001 (ip), vehicle: saline sonified 95 % of control | dose: 400.0 mg/kg/injection, schedule: Q01DX001 (ip), vehicle: saline sonified 102 % of control

CC(=O)C(C(c1ccccc1)C1CCCc2ccccc21)N1CCOCC1 (stereo not drawn)
inactive: [9] 104 % of control | [15] 103 % of control | [12] 98 % of control | [16] 100 % of control | [14] 95 % of control | [17] 101 % of control

O=C(O)C1C=CCC(C(=O)O)C1 (stereo not drawn)
inactive: [7] 101 % of control | [10] 97 % of control | [13] 101 % of control

Cc1ccc(C2(C(=O)O)CC2)cc1
inactive: [15] 98 % of control | [16] 98 % of control | [17] 96 % of control

CC(CC(O)(C(F)(F)F)C(F)(F)F)OC(=O)Nc1ccc(Cl)c(Cl)c1 (stereo not drawn)
inactive: dose: 100.0 mg/kg/injection, schedule: Q04DX003 (ip), vehicle: Klucel (hydroxypropylcellulose) (HPC) 96 % of control | dose: 200.0 mg/kg/injection, schedule: Q04DX003 (ip), vehicle: Klucel (hydroxypropylcellulose) (HPC) 101 % of control | dose: 400.0 mg/kg/injection, schedule: Q04DX003 (ip), vehicle: Klucel (hydroxypropylcellulose) (HPC) 101 % of control

O=C(O)C1CCC(=O)N1C(=O)OCc1ccccc1 (stereo not drawn)
inactive: [9] 95 % of control | [12] 92 % of control | [14] 90 % of control

COc1ccc(C(=O)CC(C#N)c2ccc(OC)c(OC)c2)cc1OC (stereo not drawn)
inactive: [15] 98 % of control | [16] 101 % of control | [17] 98 % of control

CCOCCC#N
inactive: [6] 102 % of control | [8] 102 % of control | [11] 102 % of control

CCCCCCCCC1C(CCCCCCCC(=O)N2CCCC2)C2(Cl)C(Cl)=C(Cl)C1(Cl)C2(Cl)Cl (stereo not drawn)
inactive: dose: 75.0 mg/kg/injection, schedule: Q01DX001 (ip), vehicle: saline 98 % of control | dose: 150.0 mg/kg/injection, schedule: Q01DX001 (ip), vehicle: saline 104 % of control | dose: 300.0 mg/kg/injection, schedule: Q01DX001 (ip), vehicle: saline 96 % of control
